One data set has as its system tomato fruits. Conditions: 2007, cited from earlier work; for ripening, lycopene synthesis and chlorophyll breakdown: AVG inhibits ethylene biosynthesis, 1-MCP inhibits ethylene response, ref Saltveit, 2005, Passam et al.; for drawbacks on fruit quality and maturation: in some cases, ref Passam et al. From the text:
Improving shelf life and nutritional quality of tomato fruits is difficult to achieve with the methods currently in use. Maintaining adequate storage conditions is expensive and might cause chilling injury if used improperly ([[…] et al., 2007]). Even though genetic modifications reducing gene expression of proteins involved in ethylene synthesis are possible in principle ([Abano and Buah, 2015]) these procedures are banned by law throughout Europe and have low acceptance among European consumers. Chemical methods such as application of AVG to inhibit ethylene biosynthesis or treatment with ...

The test system of data set [1] is Tomato fruits (Solanum lycopersicum L.) of the cultivar ‘Lyterno’. Conditions: in vivo. The source says:
Tomato fruits (Solanum lycopersicum L.) of the cultivar ‘Lyterno’ (Rijk Zwaan, De Lier, Netherlands) were harvested at the maturity stage “green” (USDA; 2005) from tomato plants which where cultivated in a commercial-like greenhouse at the research station Campus Klein-Altendorf (University of Bonn, Germany). At the early development stages, the trusses were manually thinned to six fruits per truss, according to the common practice aiming standardized fruit size and quality. For the experiment, the last two fruits of the fourth truss, counted from the bottom, were chosen for evaluations. At the beginning of the experiment, […] showing similar color and size were divided into four treatments (n = 25 fruits per treatment). On each fruit, a transparent polyethylene film was placed at the equatorial zone to demark the four evaluation points of 2.8 cm diameter each.
The four treatments were as follows: (1) control; (2) NOP-1, 400 μM; (3) NOP-1, 1000 μM; (4) NOP-1, 2000 μM. The NOP-1 peptide (GenScript, Piscataway, NJ, United States) was dissolved in 5 ml deionized water. On each fruit, a total of 200 microdroplets (0.5 μL each) of the peptide solution were gently deposited (50 micro droplets on each marked area of the tomato fruit) with a Hamilton microdispenser (Hamilton Bonaduz AG, Bonaduz, Switzerland). […]

The target of data set [2] is T1, tomato ethylene receptor NR (NeverRipe) (tomato (Solanum lycopersicum), UniProt Q41341 1-635, labeled with Alexa Fluor 488-Maleimide).
T1 construct: Tomato ethylene receptor NR (NeverRipe), full-length codon optimized cDNA in pET16b; pET16b normally adds the deca-histidine tag and a factor Xa site at the N-terminus (surmised); Kept in 0.015% FosCholine-16; source: E. coli BL21 (DE3), solubilized with FosCholine-16, purified (HisTrap FF / Ni-NTA)
T1 sequence (looked up): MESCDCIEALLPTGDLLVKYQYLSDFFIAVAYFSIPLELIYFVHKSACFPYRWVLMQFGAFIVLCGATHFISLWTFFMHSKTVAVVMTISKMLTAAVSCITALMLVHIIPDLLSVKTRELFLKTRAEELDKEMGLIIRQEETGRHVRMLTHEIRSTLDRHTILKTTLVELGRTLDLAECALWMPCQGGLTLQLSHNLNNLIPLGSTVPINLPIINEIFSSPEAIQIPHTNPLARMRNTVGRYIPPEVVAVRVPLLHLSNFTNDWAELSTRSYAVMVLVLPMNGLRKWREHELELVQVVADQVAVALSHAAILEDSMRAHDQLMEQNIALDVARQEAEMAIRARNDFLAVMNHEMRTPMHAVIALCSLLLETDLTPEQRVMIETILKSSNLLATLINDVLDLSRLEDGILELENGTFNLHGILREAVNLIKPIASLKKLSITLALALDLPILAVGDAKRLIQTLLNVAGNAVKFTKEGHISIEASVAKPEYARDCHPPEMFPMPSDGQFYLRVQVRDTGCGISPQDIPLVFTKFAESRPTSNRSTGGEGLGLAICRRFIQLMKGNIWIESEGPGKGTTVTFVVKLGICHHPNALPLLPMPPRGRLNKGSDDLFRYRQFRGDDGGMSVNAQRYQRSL
Put plainly: MST; 100 nM receptor labeled with Alexa Fluor 488-Maleimide titrated with unlabeled NOP-1 (500 μM to 61.04 nM) in 50 mM Tris-HCl pH 8.0, 300 mM NaCl; Monolith NT.115, 20% MST power (LeETR4) or 60% (NR); triplicate; apparent Kd. Conditions: both partners purified.

Data set [3] deals with tomato ethylene receptor LeETR4 (tomato (Solanum lycopersicum)) (UniProt Q9XET8). The data set is described as above.

Take `CC1=CC1` [1-MCP, 1-methylcyclopropene]: in the data set with tomato fruits, the “ripening, lycopene synthesis and chlorophyll breakdown” value was “significantly delay ripening and slow down lycopene synthesis and chlorophyll breakdown”; the “drawbacks on fruit quality and maturation” value was “quality losses in taste development or to complete arrest in maturation”. Regarding `CC(C)C[C@H](NC(=O)[C@H](CCCNC(=N)N)NC(=O)[C@H](CCCNC(=N)N)NC(=O)[C@H](CCCCN)NC(=O)[C@H](Cc1ccc(O)cc1)NC(=O)[C@H](CCCNC(=N)N)NC(=O)[C@H](CCCCN)NC(=O)[C@@H](N)CC(C)C)C(=O)O` [NOP-1], in data set [1], the “effect on fruit quality” value was “no negative effects on fruit quality”. For the molecule `NCCO/C=C/[C@H](N)C(=O)O` [AVG, aminoethoxyvinylglycine], in the data set on tomato fruits, the “ripening, lycopene synthesis and chlorophyll breakdown” value is “significantly delay ripening and slow down lycopene synthesis and chlorophyll breakdown”; the “drawbacks on fruit quality and maturation” value is “quality losses in taste development or to complete arrest in maturation”.

B1: NOP-1 octapeptide (peptide)
peptide: LKRYKRRL
notes: Used unlabeled in MST; also called NLS-derived peptide; source: synthetic peptide (GenScript)
With B1, the Kd in data set [2] was 23.5 µM; in data set [3], 4.15 µM.
